From patent US8299111B2, “Compounds which modulate the CB2 receptor” (Boehringer Ingelheim International GmbH, priority 2006, dated 2012)

Target: T1, human CB2R (Homo sapiens, UniProt P34972)
T1 construct: host or cells: CHO cells
Test: CB2R mediated modulation of cAMP synthesis
Format: cell-based
Settings: found through the use of the above described assays (binding and cAMP); CHO cells expressing human CB2R, forskolin-stimulated cAMP
Summary of the method: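 CHO cells expressing human CB2R were treated for 30 min at 37 °C with compound in buffer containing 1 mM IBMX, 0.25% BSA and 10 uM forskolin. cAMP was measured after lysis. EC50 is the concentration giving 50% inhibition of forskolin-stimulated cAMP, scaled to the level set by 1 uM CP55940, fitted by four-parameter logistic.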

T1 sequence (P34972 whole entry): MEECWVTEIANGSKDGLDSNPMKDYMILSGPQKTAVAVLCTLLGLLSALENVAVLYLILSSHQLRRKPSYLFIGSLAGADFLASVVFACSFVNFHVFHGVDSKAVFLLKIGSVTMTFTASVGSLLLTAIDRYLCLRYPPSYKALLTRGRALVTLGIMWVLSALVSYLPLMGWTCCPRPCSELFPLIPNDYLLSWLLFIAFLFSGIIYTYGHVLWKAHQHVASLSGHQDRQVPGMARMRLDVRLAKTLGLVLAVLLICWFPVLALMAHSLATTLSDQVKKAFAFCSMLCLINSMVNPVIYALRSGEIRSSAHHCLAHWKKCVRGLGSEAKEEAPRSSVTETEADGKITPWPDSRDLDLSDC

Row | agonistic activity | SMILES
1 | agonistic activity | CC(C)(C(=O)Nc1cccc(C(F)(F)F)n1)S(=O)(=O)c1ccc(F)cc1F [2-[(2,4-difluorophenyl)sulfonyl]-2-methyl-N-[6-(trifluoromethyl)pyridin-2-yl]propanamide]
2 | agonistic activity | CCc1sc(NC(=O)C(C)(C)S(=O)(=O)c2ccc(F)cc2F)nc1-c1ccccc1 [2-[(2,4-difluorophenyl)sulfonyl]-N-(5-ethyl-4-phenyl-1,3-thiazol-2-yl)-2-methylpropanamide]
3 | agonistic activity | CC(C)(C(=O)Nc1cccc2ccccc12)S(=O)(=O)c1ccc(Cl)cc1F [2-[(4-chloro-2-fluorophenyl)sulfonyl]-2-methyl-N-1-naphthylpropanamide]
4 | agonistic activity | CCCc1cc(NC(=O)C(C)(C)S(=O)(=O)c2ccc(Cl)cc2F)on1 [2-[(4-chloro-2-fluorophenyl)sulfonyl]-2-methyl-N-(3-propylisoxazol-5-yl)propanamide]
5 | agonistic activity | CC(C)(C(=O)Nc1nc(-c2ccccc2)cs1)S(=O)(=O)c1ccc(Cl)cc1F [2-[(4-chloro-2-fluorophenyl)sulfonyl]-2-methyl-N-(4-phenyl-1,3-thiazol-2-yl)propanamide]
6 | agonistic activity | Cc1sc(NC(=O)C(C)(C)S(=O)(=O)c2ccc(Cl)cc2F)nc1-c1ccccc1 [2-[(4-chloro-2-fluorophenyl)sulfonyl]-2-methyl-N-(5-methyl-4-phenyl-1,3-thiazol-2-yl)propanamide]
7 | agonistic activity | Cc1ccc(NC(=O)C(C)(C)S(=O)(=O)c2ccc(Cl)cc2F)nc1 [2-[(4-chloro-2-fluorophenyl)sulfonyl]-2-methyl-N-(5-methylpyridin-2-yl)propanamide]
8 | agonistic activity | CC(C)(C(=O)Nc1nsc(-c2ccccc2)n1)S(=O)(=O)c1ccc(Cl)cc1F [2-[(4-chloro-2-fluorophenyl)sulfonyl]-2-methyl-N-(5-phenyl-1,2,4-thiadiazol-3-yl)propanamide]
9 | agonistic activity | CC(C)(C(=O)Nc1cccc(C(F)(F)F)c1)S(=O)(=O)c1ccc(Cl)cc1F [2-[(4-chloro-2-fluorophenyl)sulfonyl]-2-methyl-N-[3-(trifluoromethyl)phenyl]propanamide]
10 | agonistic activity | CC(C)(C(=O)Nc1nc(C(F)(F)F)cs1)S(=O)(=O)c1ccc(Cl)cc1F [2-[(4-chloro-2-fluorophenyl)sulfonyl]-2-methyl-N-[4-(trifluoromethyl)-1,3-thiazol-2-yl]propanamide]
11 | agonistic activity | CC(C)(C(=O)Nc1ccc(C(F)(F)F)cc1)S(=O)(=O)c1ccc(Cl)cc1F [2-[(4-chloro-2-fluorophenyl)sulfonyl]-2-methyl-N-[4-(trifluoromethyl)phenyl]propanamide]
12 | agonistic activity | CC(C)(C(=O)Nc1cnc2ccccc2c1)S(=O)(=O)c1ccc(Cl)cc1F [2-[(4-chloro-2-fluorophenyl)sulfonyl]-2-methyl-N-quinolin-3-ylpropanamide]
13 | agonistic activity | CC(C)(C(=O)Nc1nc(C2CCCCC2)cs1)S(=O)(=O)c1ccc(Cl)cc1F [2-[(4-chloro-2-fluorophenyl)sulfonyl]-N-(4-cyclohexyl-1,3-thiazol-2-yl)-2-methylpropanamide]
14 | agonistic activity | CC(C)(C(=O)Nc1nc(C2CC2)cs1)S(=O)(=O)c1ccc(Cl)cc1F [2-[(4-chloro-2-fluorophenyl)sulfonyl]-N-(4-cyclopropyl-1,3-thiazol-2-yl)-2-methylpropanamide]
15 | agonistic activity | CCc1ccnc(NC(=O)C(C)(C)S(=O)(=O)c2ccc(Cl)cc2F)c1 [2-[(4-chloro-2-fluorophenyl)sulfonyl]-N-(4-ethylpyridin-2-yl)-2-methylpropanamide]
16 | agonistic activity | CC(C)(C(=O)Nc1nc(-c2ccc(Cl)cc2)cs1)S(=O)(=O)c1ccc(Cl)cc1F [2-[(4-chloro-2-fluorophenyl)sulfonyl]-N-[4-(4-chlorophenyl)-1,3-thiazol-2-yl]-2-methylpropanamide]
17 | agonistic activity | CC(C)(C(=O)Nc1cc2ccccc2cn1)S(=O)(=O)c1ccc(Cl)cc1F [2-[(4-chloro-2-fluorophenyl)sulfonyl]-N-isoquinolin-3-yl-2-methylpropanamide]
18 | agonistic activity | Cc1ccnc(NC(=O)C(C)(C)S(=O)(=O)c2ccc(Cl)cc2)n1 [2-[(4-chlorophenyl)sulfonyl]-2-methyl-N-(4-methylpyrimidin-2-yl)propanamide]
19 | agonistic activity | CC(C)(C(=O)Nc1nc2c(F)cccc2s1)S(=O)(=O)c1ccc(Cl)cc1 [2-[(4-chlorophenyl)sulfonyl]-N-(4-fluoro-1,3-benzothiazol-2-yl)-2-methylpropanamide]
20 | agonistic activity | CC(C)(C(=O)Nc1nc(-c2ccc(F)cc2)cs1)S(=O)(=O)c1ccc(Cl)cc1 [2-[(4-chlorophenyl)sulfonyl]-N-[4-(4-fluorophenyl)-1,3-thiazol-2-yl]-2-methylpropanamide]

The remaining lines, values behind:

Row | SMILES | agonistic activity
21 | Cc1ccc(S(=O)(=O)C(C)(C)C(=O)Nc2cc(-c3ccccc3)nn2C)cc1 [2-Methyl-N-(2-methyl-5-phenyl-2H-pyrazol-3-yl)-2-(toluene-4-sulfonyl)-propionamide] | agonistic activity
22 | Cc1cnc(NC(=O)C(C)(C)S(=O)(=O)c2ccc(C(F)(F)F)cc2)s1 [2-Methyl-N-(5-methyl-thiazol-2-yl)-2-(4-trifluoromethyl-benzenesulfonyl)-propionamide] | agonistic activity
23 | Cc1cnc(NC(=O)C(C)(C)S(=O)(=O)c2ccc(C(F)(F)F)cn2)s1 [2-Methyl-N-(5-methyl-thiazol-2-yl)-2-(5-trifluoromethyl-pyridine-2-sulfonyl)-propionamide] | agonistic activity
24 | CC(C)(C(=O)Nc1cccnc1)S(=O)(=O)c1ccc(C(F)(F)F)cc1 [2-Methyl-N-pyridin-3-yl-2-(4-trifluoromethyl-benzenesulfonyl)-propionamide] | agonistic activity
25 | CCCc1cc(NC(=O)C(C)(C)S(=O)(=O)c2ccc(F)cc2F)on1 [2-[(2,4-difluorophenyl)sulfonyl]-2-methyl-N-(3-propylisoxazol-5-yl)propanamide] | agonistic activity
26 | CC(C)(C(=O)Nc1cc(C(F)(F)F)ccn1)S(=O)(=O)c1ccc(F)cc1F [2-[(2,4-difluorophenyl)sulfonyl]-2-methyl-N-[4-(trifluoromethyl)pyridin-2-yl]propanamide] | agonistic activity
27 | CC(C)(C(=O)Nc1ccc(C(F)(F)F)cn1)S(=O)(=O)c1ccc(F)cc1F [2-[(2,4-difluorophenyl)sulfonyl]-2-methyl-N-[5-(trifluoromethyl)pyridin-2-yl]propanamide] | agonistic activity
28 | CC(C)(C)Cc1cc(NC(=O)C(C)(C)S(=O)(=O)c2ccc(F)cc2F)on1 [2-[(2,4-difluorophenyl)sulfonyl]-N-[3-(2,2-dimethylpropyl)isoxazol-5-yl]-2-methylpropanamide] | agonistic activity
29 | CC(C)(C(=O)Nc1ccc2ccccc2n1)S(=O)(=O)c1ccc(Cl)cc1F [2-[(4-chloro-2-fluorophenyl)sulfonyl]-2-methyl-N-quinolin-2-ylpropanamide] | agonistic activity
30 | CC(C)(C)Cc1cc(NC(=O)C(C)(C)S(=O)(=O)c2ccc(Cl)cc2F)on1 [2-[(4-chloro-2-fluorophenyl)sulfonyl]-N-[3-(2,2-dimethylpropyl)isoxazol-5-yl]-2-methylpropanamide] | agonistic activity
31 | CC(C)(C(=O)Nc1nc2ccc(F)cc2s1)S(=O)(=O)c1ccc(Cl)cc1 [2-[(4-chlorophenyl)sulfonyl]-N-(6-fluoro-1,3-benzothiazol-2-yl)-2-methylpropanamide] | agonistic activity
32 | CC(C)(C(=O)Nc1ccc(C(F)(F)F)cc1F)S(=O)(=O)c1ccc(Cl)cc1 [2-[(4-chlorophenyl)sulfonyl]-N-[2-fluoro-4-(trifluoromethyl)phenyl]-2-methylpropanamide] | agonistic activity
33 | CC(C)(C(=O)Nc1ccc(C(F)(F)F)c(F)c1)S(=O)(=O)c1ccc(Cl)cc1 [2-[(4-chlorophenyl)sulfonyl]-N-[3-fluoro-4-(trifluoromethyl)phenyl]-2-methylpropanamide] | agonistic activity
34 | Cc1sc(NC(=O)C(C)(C)S(=O)(=O)c2ccc(Cl)cc2)nc1-c1ccc(F)cc1 [2-[(4-chlorophenyl)sulfonyl]-N-[4-(4-fluorophenyl)-5-methyl-1,3-thiazol-2-yl]-2-methylpropanamide] | agonistic activity
35 | CC(C)(C(=O)Nc1ccc(F)c(C(F)(F)F)c1)S(=O)(=O)c1ccc(Cl)cc1 [2-[(4-chlorophenyl)sulfonyl]-N-[4-fluoro-3-(trifluoromethyl)phenyl]-2-methylpropanamide] | agonistic activity
36 | CCCc1cc(NC(=O)C(C)(C)S(=O)(=O)c2ccc(OC)cc2)on1 [2-[(4-methoxyphenyl)sulfonyl]-2-methyl-N-(3-propylisoxazol-5-yl)propanamide] | agonistic activity
37 | COc1ccc(S(=O)(=O)C(C)(C)C(=O)Nc2cccc(C(F)(F)F)n2)cc1 [2-[(4-methoxyphenyl)sulfonyl]-2-methyl-N-[6-(trifluoromethyl)pyridin-2-yl]propanamide] | agonistic activity
38 | CCCc1cc(NC(=O)C(C)(C)S(=O)(=O)c2ccc(S(C)(=O)=O)cc2)on1 [2-methyl-2-{[4-(methylsulfonyl)phenyl]sulfonyl}-N-(3-propylisoxazol-5-yl)propanamide] | agonistic activity
39 | CC(C)(C(=O)Nc1nc2c(s1)CCCC2)S(=O)(=O)c1ccc(S(C)(=O)=O)cc1 [2-methyl-2-{[4-(methylsulfonyl)phenyl]sulfonyl}-N-(4,5,6,7-tetrahydro-1,3-benzothiazol-2-yl)propanamide] | agonistic activity
